Patent EP4260858A1, “COMPOSITION COMPRISING PRIMIDONE AND PEG” (Christian-Albrechts-Universität zu Kiel, priority 2022, dated 2023)

Assays:
[1] = cited from earlier work
L929 fibroblasts = experiment: TNFα + zVAD induced RIPK1-dependent necroptosis, FACS (7-AAD / Annexin V); assay type: cell-based
Description: (§1) The commercially available drug Necrostatin-1 (Nec-1s, 20 µM) acted as an internal control (inhibitor) of RIPK1-mediated cell death. All drugs were added 30 min before TNFα stimulation. RIPK1-mediated cell death was quantified by FACS analysis using 7-amino-actinomycin D and phosphatidylserine accessibility (Annexin V staining) as markers. […] The commercially available drug Necrostatin-1 (Nec-1s, 20 µM) acted as an internal control (inhibitor) of RIPK1-mediated cell death. All drugs were added 30 min before TNFα stimulation. RIPK1-mediated cell death was quantified by FACS analysis using 7-amino-actinomycin D and phosphatidylserine accessibility (Annexin V staining) as markers. […] All drugs were added 30 min before TNFα stimulation. […] All drugs were added 30 min before TNFα stimulation. Necroptotic cell death was quantified by FACS analysis using 7-amino-actinomycin D and phosphatidylserine accessibility (Annexin V staining) as markers.
(§2) The known RIPK1 kinase inhibitor Nec-1s was used as a control.
(§3) RIPK3-expressing NIH3T3 cells and L929 fibroblasts were obtained from the American Type Culture Collection (Manassas, VA, USA). Both cell lines were cultured in DMEM (Gibco, Thermo Fisher Scientific, Schwerte, Germany) supplemented with 10% (v/v) FCS (PAN-Biotech GmbH, Aidenbach, Germany), 100 U/ml penicillin, and 100 µg/ml streptomycin (both from Merck Millipore GmbH, Darmstadt, Germany). The cell lines were cultured in a humidified 5% CO2 atmosphere at 37°C. Negativity for mycoplasma was routinely checked using a MycoAlert Mycoplasma Detection Kit (Lonza, Cologne, Germany). Unless stated otherwise, assays were conducted using 1x 10^5 cells in 1 ml of medium.
(§4) Recombinant purified TNFα (# 570104) was purchased from BioLegend (Amsterdam, the Netherlands). The pan-caspase inhibitor zVAD-fmk (# 4026865) was purchased from Bachem (Weil am Rhein, Germany), Nec-1s (2263-1-BV) was obtained from BioCat (Heidelberg, Germany); primidone (# P7295) was purchased from Sigma-Aldrich Chemie GmbH (Taufkirchen, Germany). Polyethylenglycol (PEG300, # 202371) was purchased from Merck Millipore, Dimethyl sulfoxide (DMSO, A3672) was obtained from AppliChem (via Thermo Fisher Scientific).
(§5) For testing the ability of primidone to protect against RIPK1-driven cell death, cells were kept in 1 ml medium. To test 1 mM, 0.75 mM and 0.5 mM primidone in PEG300, we pipetted 15.6 µl, 11.7 µl and 7.8 µl, respectively, of the 64.144 mM stock solution to the 1 ml of the medium that contains the cells. […]
(§6) Phosphatidylserine exposure to the outer cell membrane of apoptotic cells or inner plasma membrane of necrotic cells and incorporation of 7-amino-actinomycin D (7-AAD) into necrotic cells was quantified by flow cytometry analysis. […]

NIH3T3 cells = experiment: as above; assay type: cell-based
Description: as §1, §2, §3, §4, §5, §6

RIPK1 = target: T1, RIPK1 (Homo sapiens, UniProt Q13546); details: background statement, WO 2021/048162 A1; cited from earlier work
T1 sequence (Q13546 1-671): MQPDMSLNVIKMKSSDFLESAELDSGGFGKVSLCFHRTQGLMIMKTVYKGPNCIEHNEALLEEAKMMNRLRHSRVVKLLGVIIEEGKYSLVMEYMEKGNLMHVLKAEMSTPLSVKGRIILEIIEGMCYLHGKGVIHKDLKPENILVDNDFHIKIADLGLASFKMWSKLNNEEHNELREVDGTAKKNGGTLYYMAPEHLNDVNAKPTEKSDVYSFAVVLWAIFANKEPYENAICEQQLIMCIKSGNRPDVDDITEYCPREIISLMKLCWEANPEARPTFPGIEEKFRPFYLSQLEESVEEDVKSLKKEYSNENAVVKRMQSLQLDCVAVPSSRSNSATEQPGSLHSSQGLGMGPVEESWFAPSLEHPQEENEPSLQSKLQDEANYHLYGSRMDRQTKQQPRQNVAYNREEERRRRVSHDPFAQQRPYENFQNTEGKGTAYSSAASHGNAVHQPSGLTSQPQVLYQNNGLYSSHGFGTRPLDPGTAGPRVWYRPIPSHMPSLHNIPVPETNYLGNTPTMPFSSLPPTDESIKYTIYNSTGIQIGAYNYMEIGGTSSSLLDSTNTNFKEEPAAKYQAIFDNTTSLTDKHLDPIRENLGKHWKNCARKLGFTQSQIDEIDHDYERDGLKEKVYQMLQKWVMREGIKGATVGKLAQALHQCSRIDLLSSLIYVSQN

[2] = primidone solubilized in PEG300, control Nec-1s 20 µM

Structure (SMILES): CCC1(c2ccccc2)C(=O)NCNC1=O [primidone, 5-Ethyl-5-phenyl-1,3-diazinane-4,6-dione]
- soluble in dimethyl sulfoxide (DMSO) in amounts of up to ([1]; DMSO): up to 44 mg/ml
- soluble in ethanol up to a concentration ([1]; ethanol): about 3 mg/ml
- soluble in water up to a concentration ([1]; water): about 0.5 mg/ml
- protection from RIPK1-mediated necroptosis (L929 fibroblasts; 10 ng/ml TNFα + 25 µM zVAD, 24 h, 37°C, equimolar primidone (0.5-1 mM) dissolved in DMSO or PEG300, added 30 min before TNFα): able to protect
- protective effects compared with Nec-1s (L929 fibroblasts; [2]): as strong as those observed for Nec-1s
- protection from RIPK1-mediated necroptosis (NIH3T3 cells; 100 ng/ml TNFα + 25 µM zVAD, 24 h, 37°C, equimolar primidone (0.5-1 mM) dissolved in DMSO or PEG300, added 30 min before TNFα): able to protect
- protective effects compared with Nec-1s (NIH3T3 cells; [2]): as strong as those observed for Nec-1s
- activation of RIPK1 by phosphorylation or autophosphorylation (RIPK1): prevents the activation of RIPK1
